PubChem BioAssay AID1259407 (Chemical Carcinogenesis Research Information System (CCRIS), 2018)
Calls of active or inactive are those of the source. How the calls were made is not given here.

Tested on: CCRIS mutagenicity, Ames/micronucleus/aberration tests
Assay: CCRIS mutagenicity studies
[1] = Test System: AMES SALMONELLA TYPHIMURIUM, Strain/Indicator: TA98, Metabolic Activation: NONE, Method: PREINCUBATION
[2] = Test System: AMES SALMONELLA TYPHIMURIUM, Strain/Indicator: TA100, Metabolic Activation: NONE, Method: PREINCUBATION
[3] = Test System: AMES SALMONELLA TYPHIMURIUM, Strain/Indicator: TA98, Metabolic Activation: NONE, Method: STANDARD PLATE
[4] = Test System: AMES SALMONELLA TYPHIMURIUM, Strain/Indicator: TA100, Metabolic Activation: NONE, Method: STANDARD PLATE

CC(O)CN (stereo not drawn)
mutagenic call (Test System: AMES SALMONELLA TYPHIMURIUM, Strain/Indicator: TA98, Metabolic Activation: HAMSTER, LIVER, S-9, AROCLOR 1254 (10%), Method: PREINCUBATION): inactive; negative | mutagenic call [1]: inactive; negative | mutagenic call (Test System: AMES SALMONELLA TYPHIMURIUM, Strain/Indicator: TA98, Metabolic Activation: RAT, LIVER, S-9, AROCLOR 1254 (10%), Method: PREINCUBATION): inactive; negative | mutagenic call (Test System: AMES SALMONELLA TYPHIMURIUM, Strain/Indicator: TA98, Metabolic Activation: RAT, LIVER, S-9, KC 500, Method: PREINCUBATION): inactive; negative | mutagenic call (Test System: AMES SALMONELLA TYPHIMURIUM, Strain/Indicator: TA100, Metabolic Activation: HAMSTER, LIVER, S-9, AROCLOR 1254 (10%), Method: PREINCUBATION): inactive; negative | mutagenic call [2]: inactive; negative | mutagenic call (Test System: AMES SALMONELLA TYPHIMURIUM, Strain/Indicator: TA100, Metabolic Activation: RAT, LIVER, S-9, AROCLOR 1254 (10%), Method: PREINCUBATION): inactive; negative | mutagenic call (Test System: AMES SALMONELLA TYPHIMURIUM, Strain/Indicator: TA100, Metabolic Activation: RAT, LIVER, S-9, KC 500, Method: PREINCUBATION): inactive; negative | mutagenic call (Test System: AMES SALMONELLA TYPHIMURIUM, Strain/Indicator: TA1535, Metabolic Activation: HAMSTER, LIVER, S-9, AROCLOR 1254 (10%), Method: PREINCUBATION): active; positive | mutagenic call (Test System: AMES SALMONELLA TYPHIMURIUM, Strain/Indicator: TA1535, Metabolic Activation: NONE, Method: PREINCUBATION): inactive; negative | mutagenic call (Test System: AMES SALMONELLA TYPHIMURIUM, Strain/Indicator: TA1535, Metabolic Activation: RAT, LIVER, S-9, AROCLOR 1254 (10%), Method: PREINCUBATION): active; positive | mutagenic call (Test System: AMES SALMONELLA TYPHIMURIUM, Strain/Indicator: TA1535, Metabolic Activation: RAT, LIVER, S-9, KC 500, Method: PREINCUBATION): inactive; negative | mutagenic call (Test System: AMES SALMONELLA TYPHIMURIUM, Strain/Indicator: TA1537, Metabolic Activation: HAMSTER, LIVER, S-9, AROCLOR 1254 (10%), Method: PREINCUBATION): inactive; negative | mutagenic call (Test System: AMES SALMONELLA TYPHIMURIUM, Strain/Indicator: TA1537, Metabolic Activation: NONE, Method: PREINCUBATION): inactive; negative | mutagenic call (Test System: AMES SALMONELLA TYPHIMURIUM, Strain/Indicator: TA1537, Metabolic Activation: RAT, LIVER, S-9, AROCLOR 1254 (10%), Method: PREINCUBATION): inactive; negative | mutagenic call (Test System: AMES SALMONELLA TYPHIMURIUM, Strain/Indicator: TA1537, Metabolic Activation: RAT, LIVER, S-9, KC 500, Method: PREINCUBATION): inactive; negative | mutagenic call (Test System: AMES SALMONELLA TYPHIMURIUM, Strain/Indicator: TA1538, Metabolic Activation: NONE, Method: PREINCUBATION): inactive; negative | mutagenic call (Test System: AMES SALMONELLA TYPHIMURIUM, Strain/Indicator: TA1538, Metabolic Activation: RAT, LIVER, S-9, KC 500, Method: PREINCUBATION): inactive; negative | mutagenic call (Test System: Ames Salmonella typhimurium, Strain/Indicator: TA98, Metabolic Activation: None, Method: Preincubation): inactive; negative | mutagenic call (Test System: Ames Salmonella typhimurium, Strain/Indicator: TA98, Metabolic Activation: Rat, Liver, S9, Sodium phenobarbital and 5,6-benzoflavone (10%), Method: Preincubation): inactive; negative | mutagenic call (Test System: Ames Salmonella typhimurium, Strain/Indicator: TA100, Metabolic Activation: None, Method: Preincubation): inactive; negative | mutagenic call (Test System: Ames Salmonella typhimurium, Strain/Indicator: TA100, Metabolic Activation: Rat, Liver, S9, Sodium phenobarbital and 5,6-benzoflavone (10%), Method: Preincubation): inactive; negative | mutagenic call (Test System: Ames Salmonella typhimurium, Strain/Indicator: TA1535, Metabolic Activation: None, Method: Preincubation): inactive; negative | mutagenic call (Test System: Ames Salmonella typhimurium, Strain/Indicator: TA1535, Metabolic Activation: Rat, Liver, S9, Sodium phenobarbital and 5,6-benzoflavone (10%), Method: Preincubation): inactive; negative | mutagenic call (Test System: Ames Salmonella typhimurium, Strain/Indicator: TA1537, Metabolic Activation: None, Method: Preincubation): inactive; negative | mutagenic call (Test System: Ames Salmonella typhimurium, Strain/Indicator: TA1537, Metabolic Activation: Rat, Liver, S9, Sodium phenobarbital and 5,6-benzoflavone (10%), Method: Preincubation): inactive; negative | mutagenic call (Test System: E. COLI, Strain/Indicator: WP2 UVRA, Metabolic Activation: NONE, Method: PREINCUBATION): inactive; negative | mutagenic call (Test System: E. COLI, Strain/Indicator: WP2 UVRA, Metabolic Activation: RAT, LIVER, S-9, KC 500, Method: PREINCUBATION): inactive; negative | mutagenic call (Test System: E. coli, Strain/Indicator: WP2uvrA/pKM101, Metabolic Activation: None, Method: Preincubation): inactive; negative | mutagenic call (Test System: E. coli, Strain/Indicator: WP2uvrA/pKM101, Metabolic Activation: Rat, Liver, S9, Sodium phenobarbital and 5,6-benzoflavone (10%), Method: Preincubation): inactive; negative

N[C@@H](CSCc1ccccc1)C(=O)O
mutagenic call [1]: inactive; negative | mutagenic call (Test System: AMES SALMONELLA TYPHIMURIUM, Strain/Indicator: TA98, Metabolic Activation: RAT, LIVER OR KIDNEY, MICROSOMES, Method: PREINCUBATION): inactive; negative | mutagenic call [2]: inactive; negative | mutagenic call (Test System: AMES SALMONELLA TYPHIMURIUM, Strain/Indicator: TA100, Metabolic Activation: RAT, LIVER OR KIDNEY, MICROSOMES, Method: PREINCUBATION): inactive; negative | mutagenic call (Test System: AMES SALMONELLA TYPHIMURIUM, Strain/Indicator: TA102, Metabolic Activation: NONE, Method: PREINCUBATION): inactive; negative | mutagenic call (Test System: AMES SALMONELLA TYPHIMURIUM, Strain/Indicator: TA102, Metabolic Activation: RAT, LIVER OR KIDNEY, MICROSOMES, Method: PREINCUBATION): inactive; negative | mutagenic call (Test System: AMES SALMONELLA TYPHIMURIUM, Strain/Indicator: TA2638, Metabolic Activation: NONE, Method: PREINCUBATION): inactive; negative | mutagenic call (Test System: AMES SALMONELLA TYPHIMURIUM, Strain/Indicator: TA2638, Metabolic Activation: RAT, LIVER OR KIDNEY, MICROSOMES, Method: PREINCUBATION): inactive; negative

CC(N)=O
mutagenic call (End Point: IN VIVO MICRONUCLEUS, Test System: BLOOD ERYTHROCYTES, Species: MOUSE, Strain/Sex: CD-1/MALE, Route: INTRAPERITONEAL INJECTION): inactive; negative | mutagenic call [3]: inactive; negative | mutagenic call (Test System: AMES SALMONELLA TYPHIMURIUM, Strain/Indicator: TA98, Metabolic Activation: RAT, LIVER, S-9, Method: STANDARD PLATE): inactive; negative | mutagenic call [4]: inactive; negative | mutagenic call (Test System: AMES SALMONELLA TYPHIMURIUM, Strain/Indicator: TA100, Metabolic Activation: RAT, LIVER, S-9, Method: STANDARD PLATE): inactive; negative | mutagenic call (Test System: Ames Salmonella typhimurium, Strain/Indicator: YG7108pin3ERb5, Metabolic Activation: None, Method: Standard plate): inactive; negative

C1=CC2OC2C=C1 (stereo not drawn)
mutagenic call [3]: inactive; negative | mutagenic call (Test System: AMES SALMONELLA TYPHIMURIUM, Strain/Indicator: TA98, Metabolic Activation: RAT, LIVER, S-9, PHENOBARBITAL, Method: STANDARD PLATE): inactive; negative | mutagenic call [2]: inactive; negative | mutagenic call [4]: inactive; negative | mutagenic call (Test System: AMES SALMONELLA TYPHIMURIUM, Strain/Indicator: TA100, Metabolic Activation: RAT, LIVER, S-9, PHENOBARBITAL, Method: PREINCUBATION): active; positive | mutagenic call (Test System: AMES SALMONELLA TYPHIMURIUM, Strain/Indicator: TA100, Metabolic Activation: RAT, LIVER, S-9, PHENOBARBITAL, Method: STANDARD PLATE): active; positive | mutagenic call (Test System: AMES SALMONELLA TYPHIMURIUM, Strain/Indicator: TA1535, Metabolic Activation: NONE, Method: STANDARD PLATE): inactive; negative | mutagenic call (Test System: AMES SALMONELLA TYPHIMURIUM, Strain/Indicator: TM677/8-AZAGUANINE, Metabolic Activation: NONE, Method: PREINCUBATION): inactive; negative | mutagenic call (Test System: AMES SALMONELLA TYPHIMURIUM, Strain/Indicator: TM677/8-AZAGUANINE, Metabolic Activation: NONE, Method: STANDARD PLATE): inactive; negative | mutagenic call (Test System: AMES SALMONELLA TYPHIMURIUM, Strain/Indicator: TM677, Metabolic Activation: RAT, LIVER, S-9, PHENOBARBITAL, Method: PREINCUBATION): active; positive

O=[N+]([O-])c1ccc2c3c(c4cccc5ccc1c2c54)CCCC3
mutagenic call [3]: active; positive | mutagenic call (Test System: AMES SALMONELLA TYPHIMURIUM, Strain/Indicator: TA98, Metabolic Activation: RAT, LIVER, S-9, AROCLOR 1254, Method: STANDARD PLATE): active; positive

CCCCOc1c(C(=O)NOC(C)=O)cccc1[N+](=O)[O-]
mutagenic call [4]: inactive; negative | mutagenic call (Test System: AMES SALMONELLA TYPHIMURIUM, Strain/Indicator: TA100, Metabolic Activation: RAT, S-9, AROCLOR, Method: STANDARD PLATE): active; positive
